ChEMBL document CHEMBL3885861, “Open TG-GATES”

Organism: Rattus norvegicus
Assay: Open TG-GATES - Regimen: Daily Repeat
Format: toxicity, organism-based, Sprague-Dawley
Set-up: regimen Daily Repeat, gender Male, age 6 weeks
Conditions: in vivo, po, route gavage; for APTT / Bas / Eos / Fbg / Hb / Ht / Lym / MCH / MCHC / MCV / Mono / Neu / PT / Plat / RBC / Ret / WBC: tissue Blood; for KIDNEY_L / KIDNEY_R / KIDNEY_TOTAL: tissue Kidney; for LIVER: tissue Liver; for A/G / ALP / ALT / AST / BUN / CRE / Ca / Cl / DBIL / GLC / IP / K / LDH / Na / PL / RALB / TBIL / TC / TG / TP / gamma-GTP: tissue Plasma
[1] = 300 mg/kg, 72 h, dose level Middle, time 3 day
[2] = 300 mg/kg, […], dose level Middle, time 7 day
[3] = 300 mg/kg, […], dose level Middle, time 14 day
[4] = 300 mg/kg, […], dose level Middle, time 28 day
[5] = 1000 mg/kg, 72 h, dose level High, time 3 day
[6] = 1000 mg/kg, […], dose level High, time 7 day
[7] = 1000 mg/kg, […], dose level High, time 14 day
[8] = 1000 mg/kg, […], dose level High, time 28 day

COC1=CC(=O)C[C@@H](C)[C@]12Oc1c(Cl)c(OC)cc(OC)c1C2=O [GRISEOFULVIN]
TERMINAL_BW [1]: 228.3 g
APTT [1]: 19.9 s
Bas [1]: 0%
Eos [1]: 1%
Fbg [1]: 220 mg/dL
Hb [1]: 13.6 g/dL
Ht [1]: 40.4%
Lym [1]: 73.2%
MCH [1]: 20.8 pg
MCHC [1]: 33.5%
MCV [1]: 62.1 fL
Mono [1]: 3%
Neu [1]: 22.2%
PT [1]: 12.5 s
Plat [1]: 118.4 x10_4/uL
RBC [1]: 651.8 x10_4/ul
Ret [1]: 6.7%
WBC [1]: 99.2 x10_2/uL
KIDNEY_L [1]: 0.9 g
KIDNEY_R [1]: 1 g
KIDNEY_TOTAL [1]: 1.9 g
LIVER [1]: 11.3 g
A/G [1]: 1.6
ALP [1]: 836.2 IU/L
ALT [1]: 44.4 IU/L
AST [1]: 68.2 IU/L
BUN [1]: 13.8 mg/dL
CRE [1]: 0.4 mg/dL
Ca [1]: 10.8 mg/dL
Cl [1]: 104.4 meq/L
DBIL [1]: 0.084 mg/dL
GLC [1]: 218.2 mg/dL
IP [1]: 7.6 mg/dL
K [1]: 3.8 meq/L
LDH [1]: 160.4 IU/L
Na [1]: 141.2 meq/L
PL [1]: 141.6 mg/dL
RALB [1]: 3.4 g/dL
TBIL [1]: 0.1 mg/dL
TC [1]: 80.4 mg/dL
TG [1]: 69 mg/dL
TP [1]: 5.6 g/dL
gamma-GTP [1]: 1.2 IU/L
TERMINAL_BW [2]: 261.2 g
TERMINAL_BW [3]: 309.7 g
TERMINAL_BW [4]: 406.6 g
APTT [2]: 19 s
Bas [2]: 0%
Eos [2]: 0.6%
Fbg [2]: 224 mg/dL
Hb [2]: 13.7 g/dL
Ht [2]: 40.7%
Lym [2]: 76.6%
MCH [2]: 21.2 pg
MCHC [2]: 33.7%
MCV [2]: 62.9 fL
Mono [2]: 3%
Neu [2]: 18.6%
PT [2]: 12.3 s
Plat [2]: 140.6 x10_4/uL
RBC [2]: 646.8 x10_4/ul
Ret [2]: 5.7%
WBC [2]: 118 x10_2/uL
APTT [3]: 19.1 s
Bas [3]: 0%
Eos [3]: 1%
Fbg [3]: 228.6 mg/dL
Hb [3]: 14.2 g/dL
Ht [3]: 42.2%
Lym [3]: 82%
MCH [3]: 20.9 pg
MCHC [3]: 33.7%
MCV [3]: 61.9 fL
Mono [3]: 2.8%
Neu [3]: 13.6%
PT [3]: 12.2 s
Plat [3]: 115.6 x10_4/uL
RBC [3]: 682 x10_4/ul
Ret [3]: 2.8%
WBC [3]: 104.2 x10_2/uL
APTT [4]: 23.1 s
Bas [4]: 0%
Eos [4]: 1%
Fbg [4]: 215.8 mg/dL
Hb [4]: 15.2 g/dL
Ht [4]: 44.7%
Lym [4]: 81%
MCH [4]: 19.9 pg
MCHC [4]: 34%
MCV [4]: 58.8 fL
Mono [4]: 3.2%
Neu [4]: 14.4%
PT [4]: 12.6 s
Plat [4]: 108.5 x10_4/uL
RBC [4]: 761 x10_4/ul
Ret [4]: 2.7%
WBC [4]: 136.8 x10_2/uL
KIDNEY_L [2]: 1.1 g
KIDNEY_R [2]: 1.1 g
KIDNEY_TOTAL [2]: 2.2 g
KIDNEY_L [3]: 1.3 g
KIDNEY_R [3]: 1.3 g
KIDNEY_TOTAL [3]: 2.6 g
KIDNEY_L [4]: 1.4 g
KIDNEY_R [4]: 1.3 g
KIDNEY_TOTAL [4]: 2.7 g
LIVER [2]: 12.8 g
LIVER [3]: 14.8 g
LIVER [4]: 17.3 g
A/G [2]: 1.4
ALP [2]: 848 IU/L
ALT [2]: 35.6 IU/L
AST [2]: 58.4 IU/L
BUN [2]: 13.4 mg/dL
CRE [2]: 0.4 mg/dL
Ca [2]: 10.7 mg/dL
Cl [2]: 104 meq/L
DBIL [2]: 0.08 mg/dL
GLC [2]: 207.6 mg/dL
IP [2]: 7.5 mg/dL
K [2]: 3.7 meq/L
LDH [2]: 136.6 IU/L
Na [2]: 142.6 meq/L
PL [2]: 122.8 mg/dL
RALB [2]: 3.4 g/dL
TBIL [2]: 0.1 mg/dL
TC [2]: 70.4 mg/dL
TG [2]: 60 mg/dL
TP [2]: 5.8 g/dL
gamma-GTP [2]: 0.8 IU/L
A/G [3]: 1.5
ALP [3]: 784.6 IU/L
ALT [3]: 32 IU/L
AST [3]: 51.4 IU/L
BUN [3]: 14.8 mg/dL
CRE [3]: 0.6 mg/dL
Ca [3]: 10.6 mg/dL
Cl [3]: 102.8 meq/L
DBIL [3]: 0.078 mg/dL
GLC [3]: 221.6 mg/dL
IP [3]: 7.5 mg/dL
K [3]: 4.3 meq/L
LDH [3]: 112.2 IU/L
Na [3]: 140.2 meq/L
PL [3]: 142.6 mg/dL
RALB [3]: 3.5 g/dL
TBIL [3]: 0.1 mg/dL
TC [3]: 82.2 mg/dL
TG [3]: 59.6 mg/dL
TP [3]: 5.9 g/dL
gamma-GTP [3]: 1 IU/L
A/G [4]: 1.3
ALP [4]: 565.4 IU/L
ALT [4]: 34.8 IU/L
AST [4]: 55.2 IU/L
BUN [4]: 15.6 mg/dL
CRE [4]: 0.5 mg/dL
Ca [4]: 10.6 mg/dL
Cl [4]: 103 meq/L
DBIL [4]: 0.07 mg/dL
GLC [4]: 237.6 mg/dL
IP [4]: 7.3 mg/dL
K [4]: 3.7 meq/L
LDH [4]: 159.8 IU/L
Na [4]: 140.6 meq/L
PL [4]: 125.8 mg/dL
RALB [4]: 3.4 g/dL
TBIL [4]: 0.1 mg/dL
TC [4]: 70.4 mg/dL
TG [4]: 83 mg/dL
TP [4]: 6 g/dL
gamma-GTP [4]: 1 IU/L
TERMINAL_BW [5]: 225 g
APTT [5]: 21.1 s
Bas [5]: 0%
Eos [5]: 1%
Fbg [5]: 220.8 mg/dL
Hb [5]: 13.5 g/dL
Ht [5]: 39.9%
Lym [5]: 79.2%
MCH [5]: 21.2 pg
MCHC [5]: 33.8%
MCV [5]: 62.6 fL
Mono [5]: 2.4%
Neu [5]: 17%
PT [5]: 12.5 s
Plat [5]: 122 x10_4/uL
RBC [5]: 637.2 x10_4/ul
Ret [5]: 6.9%
WBC [5]: 108.3 x10_2/uL
KIDNEY_L [5]: 1 g
KIDNEY_R [5]: 1 g
KIDNEY_TOTAL [5]: 2 g
LIVER [5]: 11.5 g
A/G [5]: 1.6
ALP [5]: 1064.4 IU/L
ALT [5]: 40.6 IU/L
AST [5]: 63.8 IU/L
BUN [5]: 13.8 mg/dL
CRE [5]: 0.4 mg/dL
Ca [5]: 10.8 mg/dL
Cl [5]: 103.6 meq/L
DBIL [5]: 0.074 mg/dL
GLC [5]: 213.4 mg/dL
IP [5]: 7.8 mg/dL
K [5]: 3.8 meq/L
LDH [5]: 184.2 IU/L
Na [5]: 140.2 meq/L
PL [5]: 125.8 mg/dL
RALB [5]: 3.4 g/dL
TBIL [5]: 0.1 mg/dL
TC [5]: 72.6 mg/dL
TG [5]: 45 mg/dL
TP [5]: 5.6 g/dL
gamma-GTP [5]: 1.4 IU/L
TERMINAL_BW [6]: 266.7 g
TERMINAL_BW [7]: 318.3 g
TERMINAL_BW [8]: 423.7 g
APTT [6]: 21 s
Bas [6]: 0%
Eos [6]: 0.8%
Fbg [6]: 231.6 mg/dL
Hb [6]: 13.3 g/dL
Ht [6]: 38.9%
Lym [6]: 79.2%
MCH [6]: 21.5 pg
MCHC [6]: 34.2%
MCV [6]: 62.9 fL
Mono [6]: 3%
Neu [6]: 16.2%
PT [6]: 12.4 s
Plat [6]: 145.2 x10_4/uL
RBC [6]: 618 x10_4/ul
Ret [6]: 6.6%
WBC [6]: 110.8 x10_2/uL
APTT [7]: 20.2 s
Bas [7]: 0%
Eos [7]: 1%
Fbg [7]: 229.6 mg/dL
Hb [7]: 14.2 g/dL
Ht [7]: 42.1%
Lym [7]: 79.8%
MCH [7]: 21 pg
MCHC [7]: 33.8%
MCV [7]: 62 fL
Mono [7]: 3%
Neu [7]: 15.2%
PT [7]: 12.6 s
Plat [7]: 114.7 x10_4/uL
RBC [7]: 678.4 x10_4/ul
Ret [7]: 2.8%
WBC [7]: 112.6 x10_2/uL
APTT [8]: 24.8 s
Bas [8]: 0%
Eos [8]: 1%
Fbg [8]: 230.8 mg/dL
Hb [8]: 14.6 g/dL
Ht [8]: 43.2%
Lym [8]: 84.4%
MCH [8]: 20.4 pg
MCHC [8]: 33.9%
MCV [8]: 60.1 fL
Mono [8]: 2.4%
Neu [8]: 11.4%
PT [8]: 13 s
Plat [8]: 113.5 x10_4/uL
RBC [8]: 718.4 x10_4/ul
Ret [8]: 3.3%
WBC [8]: 158.4 x10_2/uL
KIDNEY_L [6]: 1.1 g
KIDNEY_R [6]: 1.1 g
KIDNEY_TOTAL [6]: 2.3 g
KIDNEY_L [7]: 1.3 g
KIDNEY_R [7]: 1.3 g
KIDNEY_TOTAL [7]: 2.6 g
KIDNEY_L [8]: 1.6 g
KIDNEY_R [8]: 1.5 g
KIDNEY_TOTAL [8]: 3.1 g
LIVER [6]: 13.5 g
LIVER [7]: 14.6 g
LIVER [8]: 19.4 g
A/G [6]: 1.3
ALP [6]: 845.8 IU/L
ALT [6]: 31.6 IU/L
AST [6]: 56.8 IU/L
BUN [6]: 15.2 mg/dL
CRE [6]: 0.4 mg/dL
Ca [6]: 10.8 mg/dL
Cl [6]: 103.8 meq/L
DBIL [6]: 0.064 mg/dL
GLC [6]: 207 mg/dL
IP [6]: 7.3 mg/dL
K [6]: 3.8 meq/L
LDH [6]: 150.2 IU/L
Na [6]: 142 meq/L
PL [6]: 126.8 mg/dL
RALB [6]: 3.4 g/dL
TBIL [6]: 0.1 mg/dL
TC [6]: 76.4 mg/dL
TG [6]: 45.4 mg/dL
TP [6]: 5.9 g/dL
gamma-GTP [6]: 1.2 IU/L
A/G [7]: 1.4
ALP [7]: 803.4 IU/L
ALT [7]: 32 IU/L
AST [7]: 56 IU/L
BUN [7]: 14.6 mg/dL
CRE [7]: 0.5 mg/dL
Ca [7]: 10.8 mg/dL
Cl [7]: 103 meq/L
DBIL [7]: 0.076 mg/dL
GLC [7]: 205.2 mg/dL
IP [7]: 7.4 mg/dL
K [7]: 4.2 meq/L
LDH [7]: 135.6 IU/L
Na [7]: 140.6 meq/L
PL [7]: 138.6 mg/dL
RALB [7]: 3.4 g/dL
TBIL [7]: 0.1 mg/dL
TC [7]: 81.4 mg/dL
TG [7]: 55.4 mg/dL
TP [7]: 5.9 g/dL
gamma-GTP [7]: 1 IU/L
A/G [8]: 1.3
ALP [8]: 500.8 IU/L
ALT [8]: 39.2 IU/L
AST [8]: 55 IU/L
BUN [8]: 14.8 mg/dL
CRE [8]: 0.5 mg/dL
Ca [8]: 10.5 mg/dL
Cl [8]: 103 meq/L
DBIL [8]: 0.062 mg/dL
GLC [8]: 234.6 mg/dL
IP [8]: 7.3 mg/dL
K [8]: 3.7 meq/L
LDH [8]: 159 IU/L
Na [8]: 140.6 meq/L
PL [8]: 138 mg/dL
RALB [8]: 3.4 g/dL
TBIL [8]: 0.1 mg/dL
TC [8]: 88.6 mg/dL
TG [8]: 38 mg/dL
TP [8]: 6.2 g/dL
gamma-GTP [8]: 0.8 IU/L
